Reference: patent publication US20240043943A1, “METHODS AND COMPOSITIONS FOR PROTEASE REPORTER ASSAYS AND MODULATORS” (712 NORTH, INC., priority 2021, published 2024)
“Also recorded” adds a separate entry of the source.

How the values were obtained:
Luke-TEV reporter [1] = assay: Luke-TEV control reporter bioluminescence assay in Hek293T cells; format: cell-based, human
Source text: (§1) Luke-S1 is targeted to the mitochondrial inner membrane by an 86 amino acid portion of OPA1's […] with the protein sequence SEQ ID NO: 27 and the DNA sequence SEQ ID ID NO:28.

[2] = target: T1, Luke (native NanoLuc enzyme) (Oplophorus gracilirostris, UniProt Q9GV45, A31E/A60N/A81I/F95D/I117V/K70R/L54V/L99Q/M102K/N193R/P142E/Q151K/Q38R/Q45L/V71I/Y165I); assay: Luke (native NanoLuc) control cell bioluminescence assay in Hek293T cells; format: cell-based; details: for bioluminescence of Luke cells in dose-response: 30 minutes incubation
T1 construct: expressed in transfected cells
T1 sequence (Q9GV45 with tags, fused parts or gaps with the stated changes): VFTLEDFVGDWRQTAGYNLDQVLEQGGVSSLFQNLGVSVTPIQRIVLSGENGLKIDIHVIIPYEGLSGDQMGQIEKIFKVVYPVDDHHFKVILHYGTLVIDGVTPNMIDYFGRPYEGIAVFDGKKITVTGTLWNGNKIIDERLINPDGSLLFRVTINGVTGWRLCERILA
Source text: as §1

OPA1 = OPA1 hydrolysis in Hek293T cells by Western blot; format: cell-based, human; details: 30 minutes
Source text: (§2) OPA1 hydrolysis can be monitored by Western blotting. […] The predicted size of full-length Luke-S1 is 31.8 kDa.

Luke-S1 reporter = assay: Rep#15 / Luke-S1 reporter cleavage in Hek293T cells by Western blot; format: cell-based, human; details: for cleavage of the Luke-S1 reporter in Western blots: 3 μM CCCP or 100 nM valinomycin
Protocol: For this example, transfected cells were selected by puromycin. […] […] If reporter #15 indeed is cleaved by OMA1, then phenanthroline should prevent this at least to a certain extend by inhibiting OMA1 and accordingly preserving the signal. Hek293T cells were transfected with reporter gene #15 as described in the preceding example. After 24 hours, the transfected cells were incubated with 500 μM phenanthroline in OptiMEM. After 1 hour of pretreatment, CCCP in OptiMEM/phenanthroline was added. to a final concentration of 10 μM CCCP and cells incubated for another 30 minutes at 37° C. After 30 minutes, the medium was replaced with furimazine (1:100 in OptiMEM), and bioluminescence measured as described in Example 1.
as §2

Luke-TEV reporter [3] = assay: Luke-TEV reporter cleavage in Hek293T cells by Western blot; format: cell-based, human; details: 3 μM CCCP or 100 nM valinomycin
Source text: as §2

reporter #01 = assay: Rep#01 reporter hydrolysis in Hek293T cells by Western blot; format: cell-based, human; details: 10 μM CCCP, 30 minutes
Protocol: Example 2 refers to FIG. 4 and illustrates hydrolysis of reporter #01 and reporter #15. For this example, transfected cells were selected by puromycin. Reporter cells were exposed for 30 minutes to 10 μM CCCP before being harvested in RIPA buffer and subjected to 12% SDS-PAGE followed by Western-blotting. […] Full-length reporter #01 has a predicted size of 39.6 kDa but was not detected in Western blots. […] At the same time, reporter #15 is not processed upon import, but migrated at its expected size of 31.9 kDa. (Example 7 establishes mitochondrial import by showing co-migration of reporter #15 with OPA1 and OMA1 in mitochondria-enriched fractions.) Reporter #15 appears to be more abundant and stable, which may explain its better performance. […] This provides additional evidence that reporter #15 is indeed localized in mitochondria where it is recognized and hydrolyzed by OMA1. […] Therefore, phenanthroline was used as a positive control in the reporter assay. If reporter #15 indeed is cleaved by OMA1, then phenanthroline should prevent this at least to a certain extend by inhibiting OMA1 and accordingly preserving the signal. Hek293T cells were transfected with reporter gene #15 as described in the preceding example. […] After 30 minutes, the medium was replaced with furimazine (1:100 in OptiMEM), and bioluminescence measured as described in Example 1.

OMA1 protease [4] = target: T2, OMA1 protease (Homo sapiens, UniProt Q96E52); assay: Rep#15 / Luke-S1 OMA1 reporter bioluminescence assay in Hek293T cells; format: cell-based; parameters: The OMA1 enzyme is dormant under physiological cell culture conditions in these cells; endogenous in cells; host or cells: Hek293T cells, transiently or stably (Luke-S1 line, ATCC PTA-127022) expressing reporter #15; details: Hek293T, 30 minutes exposure; CCCP 10 μM
T2 sequence (Q96E52 144-524): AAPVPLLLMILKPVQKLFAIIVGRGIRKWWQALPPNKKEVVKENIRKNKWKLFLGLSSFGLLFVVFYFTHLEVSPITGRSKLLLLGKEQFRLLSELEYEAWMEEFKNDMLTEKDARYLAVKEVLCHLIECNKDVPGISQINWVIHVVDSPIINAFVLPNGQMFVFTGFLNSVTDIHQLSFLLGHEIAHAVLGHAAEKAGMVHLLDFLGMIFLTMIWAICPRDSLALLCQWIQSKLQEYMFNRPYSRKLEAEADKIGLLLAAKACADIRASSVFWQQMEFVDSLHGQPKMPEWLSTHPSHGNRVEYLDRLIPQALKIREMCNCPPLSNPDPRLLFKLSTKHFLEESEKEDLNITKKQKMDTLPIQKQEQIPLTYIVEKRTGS
Source text: Example 1 provides a nonlimiting example of generation and use of a reporter of present invention and illustrates its function. To this end, generation and use of reporter gene #01 (SEQ ID NO: 01) and reporter gene #15 (SEQ ID NO: 15) are described and their function compared to each other. The general design of a reporter of present invention is illustrated in FIG. 1A and its working principle in FIG. 1B. A reporter in general, and reporter gene #01 and reporter gene #15 in particular, can be generated as follows. DNA sequences of a reporter may be codon-optimized in silico or by any other way for expression in a suitable host. DNA sequences of reporter genes #01 and #15 were codon-optimized for expression in humans (SEQ ID NO: 02 and SEQ ID NO: 16, respectively). The (optimized) sequences were synthesized and cloned into a pcDNA3.1 expression vector under the control of a CMV promotor (see FIG. 1 for an illustration of such vector). Of course, an expression system and a host should match for best results. The host in this example were Hek293T cells, which were maintained under standard culture conditions in DMEM with 10% Fetal Bovine Serum and 1% Pen/Strep. For an experiment, Hek293T cells were seeded in opaque white tissue-culture treated 96-well plates at 80% confluency and transfected with vectors carrying reporter gene #01 and reporter gene #15 and 24 hours later incubated for 30 minutes at 37° C. in OptiMEM or in OptiMEM with 10 μM CCCP. After 30 minutes, the OptiMEM cell-culture media was replaced with luciferase substrate (furimazine, Promega) diluted 1:100 in OptiMEM, and bioluminescence was measured with a Fluoroskan Ascent FL (Thermo Scientific) using a 517 nm single-pass filter and 200 milliseconds integration time. […] Reporter #01 comprises a large part of OPA1's amino-terminus as mitochondrial targeting sequence, which is cleaved by the mitochondrial processing peptidase upon mitochondrial import (see Example 2). Reporter #15 was initially envisioned as a control for reporter #01. Reporter #15 therefore lacks the first 66 amino acids of reporter #01 believed to be essential for mitochondrial import.
Example 5 illustrates how mitochondrial toxicity can be measured with reporter and assays of present invention. The OMA1-OPA1 pathway basically serves as a “canary-in-the-coalmine” for a mitochondrial deterioration. […] Hek293T cells expressing reporter #01 and #15 were exposed to CCCP, tipranavir and sorafenib (in OptiMEM) for 30 minutes before the medium was replaced with furimazine (1:100), and bioluminescence measured.
The following non-limiting examples illustrate in more details the in vivo assessment of OMA1 protease activity utilizing an artificial luciferase reporter of present invention stably expressed in Hek293T cells.

OMA1 protease [5] = target: T2, OMA1 protease; assay: Rep#01 OMA1 reporter bioluminescence assay in Hek293T cells; format: cell-based; parameters: The OMA1 enzyme is dormant under physiological cell culture conditions in these cells; endogenous in cells; host or cells: Hek293T cells, transiently or stably (Luke-S1 line, ATCC PTA-127022) expressing reporter #15; details: 30 minutes exposure, CCCP 10 μM
Source text: Example 1 provides a nonlimiting example of generation and use of a reporter of present invention and illustrates its function. To this end, generation and use of reporter gene #01 (SEQ ID NO: 01) and reporter gene #15 (SEQ ID NO: 15) are described and their function compared to each other. The general design of a reporter of present invention is illustrated in FIG. 1A and its working principle in FIG. 1B. A reporter in general, and reporter gene #01 and reporter gene #15 in particular, can be generated as follows. DNA sequences of a reporter may be codon-optimized in silico or by any other way for expression in a suitable host. DNA sequences of reporter genes #01 and #15 were codon-optimized for expression in humans (SEQ ID NO: 02 and SEQ ID NO: 16, respectively). The (optimized) sequences were synthesized and cloned into a pcDNA3.1 expression vector under the control of a CMV promotor (see FIG. 1 for an illustration of such vector). Of course, an expression system and a host should match for best results. The host in this example were Hek293T cells, which were maintained under standard culture conditions in DMEM with 10% Fetal Bovine Serum and 1% Pen/Strep. For an experiment, Hek293T cells were seeded in opaque white tissue-culture treated 96-well plates at 80% confluency and transfected with vectors carrying reporter gene #01 and reporter gene #15 and 24 hours later incubated for 30 minutes at 37° C. in OptiMEM or in OptiMEM with 10 μM CCCP. After 30 minutes, the OptiMEM cell-culture media was replaced with luciferase substrate (furimazine, Promega) diluted 1:100 in OptiMEM, and bioluminescence was measured with a Fluoroskan Ascent FL (Thermo Scientific) using a 517 nm single-pass filter and 200 milliseconds integration time. […]
Example 5 illustrates how mitochondrial toxicity can be measured with reporter and assays of present invention. […] Hek293T cells expressing reporter #01 and #15 were exposed to CCCP, tipranavir and sorafenib (in OptiMEM) for 30 minutes before the medium was replaced with furimazine (1:100), and bioluminescence measured.

OMA1 protease [6] = target: T2, OMA1 protease; details: literature; cited from earlier work
OMA1 protease [7] = target: T2, OMA1 protease; assay: Screen of 166 FDA-approved cancer drugs and 390 natural products in Luke-S1 assays; format: cell-based; parameters: The OMA1 enzyme is dormant under physiological cell culture conditions in these cells; endogenous in cells; host or cells: Hek293T cells, transiently or stably (Luke-S1 line, ATCC PTA-127022) expressing reporter #15; details: valinomycin treated controls, ± SD
Protocol: Luke-S1 reporter cells were incubated with 10 μM of drugs for 60 minutes after which luciferase substrate was added and bioluminescence measured.

OMA1 protease [8] = target: T2, OMA1 protease; assay: Rep#15 / Luke-S1 OMA1 reporter bioluminescence assay in Hek293T cells; format: cell-based; parameters: The OMA1 enzyme is dormant under physiological cell culture conditions in these cells; endogenous in cells; host or cells: Hek293T cells, transiently or stably (Luke-S1 line, ATCC PTA-127022) expressing reporter #15

| SMILES | EC50 (Luke-TEV reporter [1]; Luke-TEV cells, 30 minutes incubation) [nM] | bioluminescence of Luke cells in dose-response [2] | L-OPA1 proteolysis in Western blots (OPA1; 3 μM CCCP) | cleavage of the Luke-S1 reporter in Western blots (Luke-S1 reporter) | processing of reporter #15 in Western blot (Luke-S1 reporter; 10 μM CCCP, 30 minutes) | cleavage of the Luke-TEV reporter in Western blots (Luke-TEV reporter [3]) | processing of reporter #01 in Western blot (reporter #01) | bioluminescence signal of reporter #15 (OMA1 protease [4]) | bioluminescence signal of reporter #01 (OMA1 protease [5]) | real-time bioluminescence of Luke-TEV vs cells without valinomycin (Luke-TEV reporter [1]; 100 nM valinomycin added with luciferase substrate) | signal of Luke-TEV cells in dose-response (Luke-TEV reporter [1]; 30 minutes incubation) | real-time bioluminescence of Luke vs cells without valinomycin ([2]; 100 nM valinomycin added with luciferase substrate, after 10 minutes) | L-OPA1 proteolysis in Western blots (OPA1; 0.1 μM (100 nM) valinomycin) | effect on OMA1 protease (OMA1 protease [6]) | signal intensity normalized to untreated cells (100%) (OMA1 protease [7]) [%] | real-time bioluminescence of Luke-S1 vs cells without valinomycin (OMA1 protease [8]; 100 nM valinomycin added with luciferase substrate, 25 minutes recording) | Luke-S1 signal in cells treated with OMA1 siRNA (OMA1 protease [8]; 100 nM valinomycin, 30 minutes) | Luke-S1 signal in cells treated with control siRNA (OMA1 protease [8]; 100 nM valinomycin, 30 minutes) | Luke-S1 signal in cells treated with OMA1 siRNA (OMA1 protease [8]; 100 nM valinomycin, 30 minutes, listed as Valinomycin) |
| --- | --- | --- | --- | --- | --- | --- | --- | --- | --- | --- | --- | --- | --- | --- | --- | --- | --- | --- | --- |
| N#CC(C#N)=NNc1cccc(Cl)c1 [CCCP, carbonyl cyanide m-chlorophenyl hydrazone] | 566 | completely eliminated | complete disappearance of L-OPA1 isoforms; also recorded: complete L-OPA1 proteolysis | induced cleavage of the Luke-S1 reporter; also recorded: induced Luke-S1 and Luke-TEV cleavage | led to processing | cleaved; also recorded: induced Luke-S1 and Luke-TEV cleavage | led to processing | significantly reduced or substantially absent luciferase activity; also recorded: abolished; also recorded: significantly reduced bioluminescence | significantly reduced bioluminescence |  |  |  |  |  |  |  |  |  |  |
| CC(C)[C@@H]1NC(=O)[C@H](C)OC(=O)[C@@H](C(C)C)NC(=O)[C@@H](C(C)C)OC(=O)[C@H](C(C)C)NC(=O)[C@H](C)OC(=O)[C@@H](C(C)C)NC(=O)[C@@H](C(C)C)OC(=O)[C@H](C(C)C)NC(=O)[C@H](C)OC(=O)[C@@H](C(C)C)NC(=O)[C@@H](C(C)C)OC1=O [valinomycin] |  | no effects |  | induced cleavage of the Luke-S1 reporter; also recorded: induced Luke-S1 and Luke-TEV cleavage |  | cleaved; also recorded: induced Luke-S1 and Luke-TEV cleavage |  |  |  | much smaller difference | only a minor signal reduction | no notable differences | sufficed for OPA1 cleavage; also recorded: complete L-OPA1 proteolysis | can activate the OMA1 protease | 18.5 | marked signal reduction | no significant signal reduction | significant signal reduction | not in Luke-S1 cells treated with OMA1 siRNA |
